Earlier results in patent EP0620000A2, “Cosmetic or pharmaceutical use of N-acylalcanolamines” (RHONE-POULENC RORER GMBH, priority 1992, dated 1994).

Conditions: orale Anwendung; tierexperimentelle Prüfungen; DE 27 56 866 A1

For N-Oleyl-Phosphatidylethanolaminen, the “antiarteriosklerotische bzw. antilipämische Wirkung” value is given as “deutlich antiarteriosklerotische bzw. antilipämische Wirkung”.
